Test results: ChEMBL document CHEMBL1201862, “PubChem BioAssay data set” (2004)
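Following 48 hours of exposure in 96-well plates, responses at five concentrations were used to interpolate endpoints linearly. GI50 marks 50% less growth.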 Active and inactive are the calls of the source. Rule as the data show it: active = GI50 up to about 1.1 µM and inactive = higher.

Legend:
Test in all cases: NCI anticancer screen, dose series, 48 h
COLO 205 = test system: COLO 205
OVCAR-3 = test system: OVCAR-3
HCC 2998 = test system: HCC 2998
HOP-92 = test system: HOP-92
SK-MEL-2 = test system: SK-MEL-2
M14 = test system: M14
UACC-62 = test system: UACC-62
HOP-62 = test system: HOP-62
SNB-19 = test system: SNB-19
MCF7 = test system: MCF7
EKVX = test system: EKVX
TK-10 = test system: TK-10
PC-3 = test system: PC-3
SW-620 = test system: SW-620
CAKI-1 = test system: CAKI-1
NCI-H226 = test system: NCI-H226
SF-295 = test system: SF-295
OVCAR-5 = test system: OVCAR-5
SF-539 = test system: SF-539
MOLT-4 = test system: MOLT-4

Row | SMILES | GI50 (COLO 205) | GI50 (OVCAR-3) | GI50 (HCC 2998) | GI50 (HOP-92) | GI50 (SK-MEL-2) | GI50 (M14) | GI50 (UACC-62) | GI50 (HOP-62) | GI50 (SNB-19) | GI50 (MCF7) | GI50 (EKVX) | GI50 (TK-10) | GI50 (PC-3) | GI50 (SW-620) | GI50 (CAKI-1) | GI50 (NCI-H226) | GI50 (SF-295) | GI50 (OVCAR-5) | GI50 (SF-539) | GI50 (MOLT-4)
1 | O=C(/C=C/c1ccc2c(c1)OCO2)c1ccc(O)cc1 | 17.3 µM (inactive) | 15.5 µM (inactive) | 17.9 µM (inactive) | 14.5 µM (inactive) | 16.9 µM (inactive) | 18.1 µM (inactive) | 16.8 µM (inactive) | 26.8 µM (inactive) | 16.8 µM (inactive) | 11.1 µM (inactive) | 16.6 µM (inactive) | 18.7 µM (inactive) | 15 µM (inactive) | 12.1 µM (inactive) | 15.2 µM (inactive) | 18.5 µM (inactive) | 17.5 µM (inactive) | 17.5 µM (inactive) | 17.4 µM (inactive) | 
2 | Cc1ccc2ccc3ccc(C)nc3c2n1 [NEOCUPROINE] | 0.491 µM (active) | 0.344 µM (active) | 6.38 µM (inactive) | > 100 µM (inactive) | > 100 µM (inactive) | > 22.2 µM (inactive) | 3.03 µM (inactive) | 4.68 µM (inactive) | > 100 µM (inactive) | 0.318 µM (active) | > 100 µM (inactive) | > 100 µM (inactive) | 2.1 µM (inactive) | 51.5 µM (inactive) | > 100 µM (inactive) | 33.4 µM (inactive) | 5.65 µM (inactive) |  | 49.2 µM (inactive) | 1.34 µM (inactive)
3 | N#Cc1c(Nc2nc3ccccc3s2)c2ccccc2n2c1nc1ccccc12 | > 100 µM (inactive) | > 100 µM (inactive) | > 100 µM (inactive) | > 100 µM (inactive) | > 100 µM (inactive) | > 100 µM (inactive) | > 100 µM (inactive) | 27.1 µM (inactive) | > 100 µM (inactive) | > 100 µM (inactive) | > 100 µM (inactive) | > 100 µM (inactive) | > 100 µM (inactive) | > 100 µM (inactive) | > 100 µM (inactive) |  | 82 µM (inactive) | > 100 µM (inactive) | > 100 µM (inactive) | > 100 µM (inactive)
4 | CC(=O)O[C@H]1C(=O)[C@@]2(C)[C@H]([C@H](OC(=O)c3ccccc3)[C@]3(O)C[C@H](OC(=O)[C@H](O)[C@@H](NC(=O)c4ccoc4)c4ccccc4)C(C)=C1C3(C)C)[C@]1(OC(C)=O)CO[C@@H]1C[C@@H]2O | 0.026 µM (active) | < 0.01 µM (active) | 0.0216 µM (active) | 0.552 µM (active) | 0.0225 µM (active) | 0.09 µM (active) | 0.0776 µM (active) | 0.212 µM (active) | 0.0946 µM (active) | 0.0265 µM (active) | 0.897 µM (active) | 0.0861 µM (active) | 0.0212 µM (active) | 0.021 µM (active) |  | 0.0386 µM (active) | < 0.01 µM (active) | 0.0256 µM (active) | 0.0292 µM (active) | 0.0332 µM (active)
5 | O=C1c2cc3c(cc2CC12Cc1ccccc1C2)CCC3 | 18.6 µM (inactive) | 41.8 µM (inactive) | 31 µM (inactive) | 23.9 µM (inactive) | 23.5 µM (inactive) | 23.2 µM (inactive) |  | 27.8 µM (inactive) | > 100 µM (inactive) | 18.8 µM (inactive) | 29.9 µM (inactive) | 42.5 µM (inactive) | 34 µM (inactive) | 45.8 µM (inactive) | 15.5 µM (inactive) | 23.4 µM (inactive) | 46.5 µM (inactive) | 52.6 µM (inactive) | 31.4 µM (inactive) | 19.9 µM (inactive)
6 | C=Cc1nc(C#N)c(N)o1 | > 100 µM (inactive) | > 100 µM (inactive) | > 100 µM (inactive) | > 100 µM (inactive) | > 100 µM (inactive) | > 100 µM (inactive) |  | > 100 µM (inactive) | > 100 µM (inactive) | > 100 µM (inactive) | > 100 µM (inactive) | > 100 µM (inactive) | > 100 µM (inactive) | > 100 µM (inactive) | > 100 µM (inactive) | > 100 µM (inactive) | > 100 µM (inactive) | > 100 µM (inactive) | > 100 µM (inactive) | > 100 µM (inactive)
7 | N#CC(N)c1ccc(OCCCCCCCCCCOc2ccc(C(N)C#N)cc2)cc1 (centres undefined) | > 100 µM (inactive) | > 100 µM (inactive) | > 100 µM (inactive) | > 100 µM (inactive) | 81.8 µM (inactive) | > 100 µM (inactive) | > 100 µM (inactive) |  | > 100 µM (inactive) | > 100 µM (inactive) | > 100 µM (inactive) | > 100 µM (inactive) | > 100 µM (inactive) | > 100 µM (inactive) | > 100 µM (inactive) | > 100 µM (inactive) | > 100 µM (inactive) | > 100 µM (inactive) | > 100 µM (inactive) | 18.6 µM (inactive)
8 | CSc1nc2c(c(=O)n1C)N=C(c1ccccc1)[C@H](C(CC(=O)c1ccccc1)c1ccccc1)C(c1ccccc1)N2 (some centres undefined) | > 100 µM (inactive) | > 100 µM (inactive) | > 100 µM (inactive) | > 100 µM (inactive) | > 100 µM (inactive) | > 100 µM (inactive) | > 100 µM (inactive) | > 100 µM (inactive) | > 100 µM (inactive) | 37.1 µM (inactive) | 15.8 µM (inactive) |  | 9.84 µM (inactive) | 26.1 µM (inactive) | > 100 µM (inactive) | > 100 µM (inactive) | > 100 µM (inactive) | > 100 µM (inactive) | > 100 µM (inactive) | 5.94 µM (inactive)
9 | CC(C)(CNC(=O)/C(Cl)=C(/Cl)C(=O)O)CNC(=O)/C(Cl)=C(/Cl)C(=O)O | 18.2 µM (inactive) | > 100 µM (inactive) | > 100 µM (inactive) | 78.3 µM (inactive) | > 100 µM (inactive) |  | > 100 µM (inactive) | > 100 µM (inactive) | > 100 µM (inactive) | 59.6 µM (inactive) | > 100 µM (inactive) | 64.3 µM (inactive) | > 100 µM (inactive) | 40.6 µM (inactive) | > 100 µM (inactive) | > 100 µM (inactive) | > 100 µM (inactive) | > 100 µM (inactive) | 67.6 µM (inactive) | 30.9 µM (inactive)
10 | CCCCCC/C=C/C#CCCCCCCCC(=O)O | > 100 µM (inactive) | > 100 µM (inactive) | > 100 µM (inactive) | > 100 µM (inactive) | > 100 µM (inactive) | > 100 µM (inactive) |  |  | > 100 µM (inactive) | > 100 µM (inactive) | > 100 µM (inactive) | > 100 µM (inactive) | > 100 µM (inactive) | > 100 µM (inactive) | > 100 µM (inactive) | > 100 µM (inactive) | > 100 µM (inactive) | > 100 µM (inactive) | > 100 µM (inactive) | 78.2 µM (inactive)
11 | COC(=O)Cc1cccc2c(=O)c(S(=O)(=O)NC(=O)Nc3ccc(Cl)cc3)c(-c3ccccc3)oc12 | 34.4 µM (inactive) | 79.8 µM (inactive) | 54.6 µM (inactive) | 29.6 µM (inactive) |  | > 100 µM (inactive) | 13.5 µM (inactive) | > 100 µM (inactive) | 44.6 µM (inactive) | 47.8 µM (inactive) | > 100 µM (inactive) | > 100 µM (inactive) | 16.3 µM (inactive) | 13.9 µM (inactive) | 24.3 µM (inactive) | > 100 µM (inactive) | 67.9 µM (inactive) | > 100 µM (inactive) | 58.5 µM (inactive) | 17.1 µM (inactive)
12 | COC(=O)c1ccc(/C=C2\CCc3ccccc3C2=O)cc1 | > 100 µM (inactive) | > 100 µM (inactive) | > 100 µM (inactive) | > 100 µM (inactive) |  | > 100 µM (inactive) | > 100 µM (inactive) | > 100 µM (inactive) | > 100 µM (inactive) | > 100 µM (inactive) | > 100 µM (inactive) | > 100 µM (inactive) | > 100 µM (inactive) | > 100 µM (inactive) | > 100 µM (inactive) | > 100 µM (inactive) | > 100 µM (inactive) | > 100 µM (inactive) | > 100 µM (inactive) | > 100 µM (inactive)
13 | C=C(C)C1CC2=C(C(=O)OC)C=C(O2)C(C(=C)C)[C@@H]2OC(=O)/C(=C\C1O)[C@H]2N(C)C (some centres undefined) | 9.4 µM (inactive) | 12.6 µM (inactive) | 14.7 µM (inactive) | 6.53 µM (inactive) | 13 µM (inactive) | 12.9 µM (inactive) | 14.5 µM (inactive) | 19.4 µM (inactive) | 1.65 µM (inactive) | 5.92 µM (inactive) | 11.7 µM (inactive) | 1.6 µM (inactive) | 11.4 µM (inactive) | 7.33 µM (inactive) | 7.71 µM (inactive) | 7.69 µM (inactive) | 17.5 µM (inactive) | 16.5 µM (inactive) | 7.4 µM (inactive) | 
14 | COc1cc(OC)cc(Oc2nc3c(N)cc(C(F)(F)F)cc3nc2-c2ccccc2)c1 | 20.1 µM (inactive) |  | 24.3 µM (inactive) | > 100 µM (inactive) | 20 µM (inactive) | 49.3 µM (inactive) | > 100 µM (inactive) | > 100 µM (inactive) | 95.7 µM (inactive) | 8.93 µM (inactive) | 25.5 µM (inactive) | 60.5 µM (inactive) | 26.2 µM (inactive) | 28.5 µM (inactive) | 26.9 µM (inactive) | 43.2 µM (inactive) | 49.5 µM (inactive) |  | 99.3 µM (inactive) | 9.27 µM (inactive)
